Test results: US12338221B2, “Process for preparation of sulfentrazone with tank-mix compatibility” (UPL LTD, priority 2021, dated 2025)

Assay: Tank mix compatibility test with other pesticide active compound
Type: physicochemical
Conditions: FIG. 2 and FIG. 3
Method: Samples prepared according to Example 6 and Example 7 were tested for compatibility with clomazone EC formulation (UPSTAGE®). The tank mix compatibility was checked as per the dosages mentioned below: [table] Method: Total 250 ml of spray dilution solution was prepared using above mentioned composition wherein 7 ml of each sample 1 and sample 2 were mixed with 10 ml of UPSTAGE® and mixture was diluted with water.

| Compound | Physical incompatibilities when mixed with a clomazone EC formulation |
| --- | --- |
| Cc1nn(-c2cc(NS(C)(=O)=O)c(Cl)cc2Cl)c(=O)n1C(F)F [conventionally prepared sulfentrazone, N[2,4-dichloro-5-[4-(difluoromethyl)-4,5-dihydro-3-methyl-5-oxo-1H-1,2,4-triazol-1-yl]phenyl]methanesulfonamide] | moderate to severe physical incompatibilities |
| Cc1nn(-c2cc(NS(C)(=O)=O)c(Cl)cc2Cl)c(=O)n1C(F)F [sulfentrazone prepared in accordance with the present disclo] [N[2,4-dichloro-5-[4-(difluoromethyl)-4,5-dihydro-3-methyl-5-oxo-1H-1,2,4-triazol-1-yl]phenyl]methanesulfonamide] | did not result in any physical incompatibilities |
